Source: patent publication US9611223B2, “3-aryl-5-substituted-isoquinolin-1-one compounds and their therapeutic use” (INSTITUTE OF CANCER RESEARCH: ROYAL CANCER HOSPITAL (THE), priority 2013, dated 2017)
Read-outs that look alike come from different tables or passages of the source.

Legend:
TNKS1 = target: T1, TNKS1 (Homo sapiens, UniProt O95271, M1266I); experiment: TNKS1/PARP Biochemical Assay
T1 construct: expresses the active PARP domain of TNKS1 as a polyhistidine tagged protein; made in house; host or cells: E. coli Rosetta2(DE3)
Method: TNKS1/PARP Biochemical Assay
Tankyrase activity was assayed using a 96-well format HT Universal Chemiluminescent PARP Assay Kit (Trevigen, Inc, cat. no. 4676-096-K) according to the manufacturer's instructions. In short, tankyrase/PARP activity is quantified by the incorporation of biotinylated nicotinamide adenine dinucleotide (biotin-NAD^+) onto the immobilised pseudo substrate, Histone. The extent of poly(Biotin-ADP)ribosylation (PARylation) in the presence of increasing dose of inhibitor is then quantified by binding of streptavidin conjugated horse radish peroxidase (strep-HRP) followed by chemiluminescent detection.
Prior to assay initiation, inhibitor stocks were prepared in aqueous DMSO (10% (v/v)) from 5 millimolar (mM) stock in 100% DMSO (Sigma Aldrich, cat. no. 265855) as 10× concentrations. For the primary assay (i.e., single dose at 1 micromolar (μM) final concentration) this corresponded to 10 μM in 10% DMSO. For IC50 determination, this corresponded to 100 μM, 30 μM, 10 μM, 3.0 μM, 1.0 μM, 0.30 μM, 0.10 μM and 0 μM in 10% DMSO for final concentrations of 10 μM, 3.0 μM, 1.0 μM, 0.30 μM, 0.10 μM, 0.030 μM, 0.010 μM, and 0 μM with 1% (v/v) final DMSO. The assay was initiated by the addition of 10× inhibitor (5 microliters (μL)) or 10% aqueous DMSO (5 μL) to triplicate wells. Twenty microliters of diluted TNKS1 protein (200 nanomolar (nM) final conc.) in PARP buffer (Trevigen, Inc, cat. no. 4671-096-02) was added to each histone coated well, which was previously hydrated with PARP buffer. Triplicate wells with 1% DMSO/buffer alone (no enzyme) were also added as a measure of assay ‘noise’. Positive control for PARP inhibition included the addition of 4-amino-1,8-naphthalimide (Sigma Aldrich, cat. no A0966) in corresponding doses.
The mixture was incubated for 10 minutes at room temperature and the PARylation reaction initiated by the addition of PARP cocktail (25 μL, Trevigen, Inc) containing biotin-NAD^+ (Trevigen, Inc, cat. no. 4670-500-01), activated DNA (Trevigen, Inc, cat. no. 4671-096-06) and PARP buffer. The reaction was incubated for 1.5 hours (for TNKS1) or 1 hour (for PARP1) at room temperature. The reaction mixture was then removed by aspiration and the wells washed (3×200 μL) with phosphate buffered saline containing Triton X-100 (0.1% (v/v), Sigma Aldrich cat. no. T8787). The wells were then washed (3×200 μL) with phosphate buffered saline and then incubated with strep-HRP (50 μL, Trevigen, Inc, cat. no. 4800-30-06) in strep-diluent (1:500 dilution, Trevigen Inc, cat. no. 4671-096-04) for 1 hour at room temperature. The Strep-HRP mixture was then aspirated and the wells washed (3×200 μL) with phosphate buffered saline containing Triton X-100 (0.1% (v/v)) followed by phosphate buffered saline (3×200 μL) and then incubated with PeroxyGlow™ reagent (100 μL, Trevigen, Inc, cat. nos. 4675-096-01, 4675-096-02, room temperature, mixed 1:1).
The amount of light emitted as a result of the peroxidase-chemiluminescent reagent reaction was in proportion to the extent of poly(Biotin-ADP)ribosylation and was immediately measured with a Victor^2 plate reader (Perkin Elmer, luminescence detection assay, luminescent units described as ‘Counts Per Second’ (CPS)). The data were normalised to the DMSO control after subtraction of ‘noise’ and was expressed as % PARP activity as a function of inhibitor dose. Inhibition was expressed as 100%−(% PARP activity). Dose response curves used to determine IC50 values were Log transformed and analysed by non-linear regression analysis (variable slope) using Prism (GraphPad Software, Inc) and were presented as IC50 with 95% confidence interval to determine relative potency.
Tankyrase1 (pNIC-Bsa4-TNKS1^PARP) expression construct was obtained from the Structural Genomics Consortium (SGC) and expresses the active PARP domain of TNKS1 as a polyhistidine tagged protein. […]

Wnt signalling = experiment: Wnt-Luciferase Reporter Assay; assay type: cell-based; conditions: DLD1-Wnt-Luc cells, 20-22 hours
Method: Wnt-Luciferase Reporter Assay
A Wnt dependent cell line (i.e., DLD1 colorectal adenocarcinoma cell line) was transduced with replication incompetent VSV-g pseudotyped lentiviral particles expressing the firefly luciferase gene under the control of minimal cytomegalovirus (mCMV) promoter and tandem repeats of the TCF/LEF transcriptional response element.
DLD1-Wnt-Luc cells were seeded (5000 cells/well) in a 96-well plate (Greiner Bio-One, cat. no. 655098) in Dubelco's Modified Eagle Medium (DMEM, SFBCO/Invitrogen, cat no. 41965-039) supplemented with Fetal Bovine Serum (FBS, 10%, SFBCO/Invitrogen, cat no. 10108-165). After overnight incubation, the media was replaced with OptiMEM (SFBCO/Invitrogen, cat no. 11058-021) supplemented with FBS (0.5%) and non-essential amino acids (1%, SFBCO/Invitrogen, cat no. 11140-035) and the appropriate putative TNKS inhibitor at a final concentration of 10 μM, 3 μM, 1 μM, 0.30 μM, 0.10 μM, 0.030 μM, 0.010 μM and 0 μM with 1% (v/v) final DMSO in double-triplicate wells. Positive control includes the use of XAV-939 (Maybridge, FisherScientific, 3,5,7,8-tetrahydro-2-[4-(trifluoromethyl)phenyl]-4H-thiopyrano[4,3-d]pyrimidin-4-one, cat. no. RF03920, see: Huang et al., Nature, 2009, Vol. 461, pp. 614-620). Cells were incubated for 20-22 hours before assaying for luciferase (first set of triplicates: Wnt activation) and viability (second set of triplicates: cell survival for data normalisation vs Wnt-activation) using ONE-Glo (Promega, cat. no. E6110) and CellTiter-Glo (Promega, cat. no. G7570) reagents consecutively. The assay was measured using a Victor^2 plate reader. The data were normalised to the DMSO control and were expressed as % Wnt activity as a function of inhibitor dose. Dose response curves used to determine IC50 values were Log transformed and analysed by non-linear regression analysis (variable slope) using Prism (GraphPad Software, Inc).

COLO320DM cells = experiment: Tumour Cell Inhibition Assay (COLO320DM cells); assay type: cell-based; conditions: Homo sapiens, COLO 320DM, 120 h, five day exposure, read-out: cell inhibitory SF50 (COLO320DM)
Method: (§1) Tumour Cell Inhibition in Colorectal Tumour Cells
(§2) In order to determine the efficacy of acute dosing of putative TNKS inhibitors, five day exposure cell viability assays were carried out. This included the sparse seeding of cells in a 96-well plate followed by continuous dosing of cells over a five day period.
(§3) Appropriate cell lines (HT55, COLO320DM and SW620) were seeded at 500 cells/well in a 96-well plate in MEM (HT55), RPMI (COLO320DM) or DMEM (SW620) supplemented with FBS. After overnight incubation, cells were treated with the appropriate putative TNKS inhibitor in 6 or 10 concentrations ranging from 0 μM to 10 μM at 0.2% final DMSO concentration in appropriate media supplemented with 10% or 0.5% FBS. Dosages were carried out in triplicate. Termination of the assay and measurement of cell viability was achieved by the use of Cell Titre Glo reagent and luminescence measurement on an appropriate plate reader.
(§4) Dose response curves used to determine SF50 values were Log transformed and analysed by non-linear regression analysis (variable slope) using Prism (GraphPad Software, Inc).

HT55 cells = experiment: Tumour Cell Inhibition Assay (HT55 cells); assay type: cell-based; conditions: Homo sapiens, HT55, 120 h, read-out: cell inhibitory SF50 (HT55)
Method: as §1, §2, §3, §4

[1] = Tumour Cell Inhibition Assay, five day exposure

T1 sequence (O95271 1112-1317 M1266I): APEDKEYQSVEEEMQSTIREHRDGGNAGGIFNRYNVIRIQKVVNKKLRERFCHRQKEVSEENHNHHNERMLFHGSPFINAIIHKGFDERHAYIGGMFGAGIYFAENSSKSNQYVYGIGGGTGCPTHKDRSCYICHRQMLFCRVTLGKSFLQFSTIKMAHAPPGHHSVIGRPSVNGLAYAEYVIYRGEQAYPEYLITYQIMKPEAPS

| SMILES | IC50 (TNKS1) | IC50 (Wnt signalling) | IC50 (COLO320DM cells) | IC50 (HT55 cells; [1]) | IC50 (HT55 cells) |
| --- | --- | --- | --- | --- | --- |
| CN1CCN(C(=O)Cc2ccc(-c3cc4c(C#N)cc(F)cc4c(=O)[nH]3)cc2)CC1 [IQ-036] | < 50 nM | < 300 nM | < 5000 nM |  |  |
| CN1CCC(N(C)C(=O)c2ccc(-c3cc4c(C#N)cccc4c(=O)[nH]3)cc2)CC1 [IQ-005] | < 50 nM | < 300 nM | < 5000 nM |  |  |
| Cc1nnc(C2CCN(Cc3ccc(-c4cc5c(C#N)cccc5c(=O)[nH]4)cc3)CC2)o1 [IQ-041] | < 50 nM | < 300 nM |  |  | < 5000 nM |
| N#Cc1cccc2c(=O)[nH]c(-c3ccc(C(=O)N4CCNCC4)cc3)cc12 [IQ-004, 1-Oxo-3-[4-(piperazine-1-carbonyl)-phenyl]-1,2-dihydro-isoquinoline-5-carbonitrile] | < 50 nM |  |  | < 5000 nM |  |
| N#Cc1cccc2c(=O)[nH]c(-c3cnc(N4CCN(C(=O)C5CC5)CC4)nc3)cc12 [IQ-007, 3-[2-(4-Cyclopropanecarbonyl-piperazin-1-yl)-pyrimidin-5-yl]-1-oxo-1,2-dihydro-isoquinoline-5-carbonitrile] | < 50 nM | < 300 nM |  |  |  |
| N#Cc1cccc2c(=O)[nH]c(-c3ccc(Cn4ccnc4CO)cc3)cc12 [IQ-015, 3-[4-(2-Hydroxymethyl-imidazol-1-ylmethyl)-phenyl]-1-oxo-1,2-dihydro-isoquinoline-5-carbonitrile] | < 50 nM |  | < 5000 nM | < 5000 nM |  |
| N#Cc1cccc2c(=O)[nH]c(-c3ccc(N4CCNCC4)cc3)cc12 [IQ-054] | < 50 nM |  |  |  | < 5000 nM |
| N#Cc1cccc2c(=O)[nH]c(-c3ccc(CN4CC5CCC(C4)N5)cc3)cc12 [IQ-003] | < 100 nM | < 300 nM | < 5000 nM |  |  |
| N#Cc1cccc2c(=O)[nH]c(-c3ccc(Cn4ccnc4N)cc3)cc12 [IQ-018] | < 50 nM | < 300 nM | < 5000 nM | < 5000 nM |  |
| CN1CCN(C(=O)Cc2ccc(-c3cc4c(C#N)cccc4c(=O)[nH]3)cc2)CC1 [IQ-037] | < 50 nM | < 300 nM | < 5000 nM |  |  |
| N#Cc1cccc2c(=O)[nH]c(-c3ccc(Cn4cccn4)cc3)cc12 [IQ-021] | < 50 nM | < 300 nM |  |  |  |

More lines, main results first:

| IC50 (TNKS1) | IC50 (Wnt signalling) | IC50 (COLO320DM cells) | IC50 (HT55 cells; [1]) | SMILES | IC50 (HT55 cells) |
| --- | --- | --- | --- | --- | --- |
| < 100 nM | < 300 nM | < 5000 nM |  | N#Cc1cccc2c(=O)[nH]c(-c3ccc(N4CCNCC4)nc3)cc12 [IQ-052] |  |
| < 50 nM | < 300 nM | < 5000 nM |  | Cc1nnc(NCc2ccc(-c3cc4c(C#N)cccc4c(=O)[nH]3)cc2)o1 [IQ-045, 3-{4-[5-Methyl-[1,3,4-oxadiazol-2-ylamino)methyl]phenyl}-1-oxo-1,2-dihydroisoquinoline-5-carbonitrile] |  |
| < 50 nM | < 300 nM | < 5000 nM |  | COCCN1CCN(C(=O)c2ccc(-c3cc4c(C#N)cccc4c(=O)[nH]3)cc2)CC1 [IQ-035] |  |
| < 50 nM |  | < 5000 nM | < 5000 nM | CN1CCCN(Cc2ccc(-c3cc4c(C#N)cccc4c(=O)[nH]3)cc2)CC1 [IQ-048] |  |
| < 100 nM | < 300 nM | < 5000 nM |  | N#Cc1cccc2c(=O)[nH]c(-c3ccc(Cn4nccn4)cc3)cc12 [IQ-027] |  |
|  | < 300 nM |  |  | N#Cc1cccc2c(=O)[nH]c(-c3ccc(CN4CCNCC4)cc3)cc12 [IQ-050, 1-Oxo-3-(4-piperazin-1-ylmethyl-phenyl)-1,2-dihydro-isoquinoline-5-carbonitrile] |  |
